The IC50 is the concentration at which inhibition is half-maximal.

The test has as its target T1, kinase-domain human PKCι (Homo sapiens, UniProt P41743).
T1 construct: Recombinant, kinase-domain human PKCι is expressed and purified in-house; made in house
T1 sequence (P41743 254-522 limits assumed): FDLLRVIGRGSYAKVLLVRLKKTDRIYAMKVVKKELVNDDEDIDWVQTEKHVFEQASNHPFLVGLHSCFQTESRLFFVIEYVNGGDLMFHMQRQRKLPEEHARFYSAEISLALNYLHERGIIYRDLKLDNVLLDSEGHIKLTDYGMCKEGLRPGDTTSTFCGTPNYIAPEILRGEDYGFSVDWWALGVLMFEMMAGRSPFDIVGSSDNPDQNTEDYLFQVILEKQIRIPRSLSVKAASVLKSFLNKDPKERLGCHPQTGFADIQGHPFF
The test can be described thus: PKCι IC50 IMAP fluorescence polarisation assay, kinase-domain enzyme. The class given is biochemical. To be noted: kinase domain PKCi at 2 μM ATP; read-out: IC50 in IMAP assay against kinase domain PKCi (Activity). A general note: Fluorescence polarisation rises when a labelled molecule tumbles more slowly, as on binding a larger partner.
As for `N[C@H](COc1nc(-c2ccncc2)nc2sc3c(c12)CCCC3)Cc1cccc2ccccc12` [compound 161, (S)-1-Naphthalen-1-ylmethyl-2-(2-pyridin-4-yl-5,6,7,8-tetrahydro-benzo[4,5]thieno[2,3-d]pyrimidin-4-yloxy)-ethylamine], the IC50 is 1 to 10 µM. As for `N[C@H](COc1nc(-c2ccncc2)nc2sc3c(c12)CCCC3)Cc1ccc(F)cc1` [compound 162, (S)-1-(4-Fluoro-benzyl)-2-(2-pyridin-4-yl-5,6,7,8-tetrahydro-benzo[4,5]thieno[2,3-d]pyrimidin-4-yloxy)-ethylamine], the IC50 lay in the range of 10 to 40 µM.

As to `N[C@H](COc1nc(-c2ccncc2)nc2sc3c(c12)CCCC3)Cc1cccc(F)c1` [compound 163, (S)-1-(3-Fluoro-benzyl)-2-(2-pyridin-4-yl-5,6,7,8-tetrahydro-benzo[4,5]thieno[2,3-d]pyrimidin-4-yloxy)-ethylamine], the IC50 is 1 to 10 µM.

On to `N[C@H](COc1nc(-c2ccncc2)nc2sc3c(c12)CCCC3)Cc1ccccc1F` [compound 164, (S)-1-(2-Fluoro-benzyl)-2-(2-pyridin-4-yl-5,6,7,8-tetrahydro-benzo[4,5]thieno[2,3-d]pyrimidin-4-yloxy)-ethylamine], for which the IC50 lay in the range of 1 to 10 µM. Take `Cc1cccc(C[C@H](N)COc2nc(-c3ccncc3)nc3sc4c(c23)CCCC4)c1` [compound 165, (S)-1-(3-Methyl-benzyl)-2-(2-pyridin-4-yl-5,6,7,8-tetrahydro-benzo[4,5]thieno[2,3-d]pyrimidin-4-yloxy)-ethylamine]: the half-maximal inhibitory concentration (IC50) is 1 to 10 µM. As for `Cc1ccc(C[C@H](N)COc2nc(-c3ccncc3)nc3sc4c(c23)CCCC4)cc1` [compound 166, (S)-1-(4-Methyl-benzyl)-2-(2-pyridin-4-yl-5,6,7,8-tetrahydro-benzo[4,5]thieno[2,3-d]pyrimidin-4-yloxy)-ethylamine], the figure is 1 to 10 µM.

Consider `N[C@H](CCc1ccccc1)COc1nc(-c2ccncc2)nc2sc3c(c12)CCCC3` [compound 167, (R)-3-Phenyl-1-(2-pyridin-4-yl-5,6,7,8-tetrahydro-benzo[4,5]thieno[2,3-d]pyrimidin-4-yloxymethyl)-propylamine], for which the IC50 lay in the range of 10 to 40 µM. As for `N[C@H](COc1nc(-c2ccncc2)nc2sc3c(c12)CCCC3)Cc1cccs1` [compound 168, (S)-2-(2-Pyridin-4-yl-5,6,7,8-tetrahydro-benzo[4,5]thieno[2,3-d]pyrimidin-4-yloxy)-1-thiophen-2-ylmethyl-ethylamine], the figure is 1 to 10 µM. As for `COc1ccc(C[C@@H](N)COc2nc(-c3ccncc3)nc3sc4c(c23)CCCC4)cc1` [compound 169, (R)-1-(4-Methoxy-benzyl)-2-(2-pyridin-4-yl-5,6,7,8-tetrahydro-benzo[4,5]thieno[2,3-d]pyrimidin-4-yloxy)-ethylamine], the figure is 10 to 40 µM; as for `N[C@@H](COc1nc(-c2ccncc2)nc2sc3c(c12)CCCC3)Cc1cccs1` [compound 170, (R)-2-(2-Pyridin-4-yl-5,6,7,8-tetrahydro-benzo[4,5]thieno[2,3-d]pyrimidin-4-yloxy)-1-thiophen-2-ylmethyl-ethylamine], 10 to 40 µM.

Take `N[C@H](COc1nc(-c2ccncc2)nc2sc3c(c12)CCCC3)Cc1ccc(Br)cc1` [compound 171, (S)-1-(4-Bromo-benzyl)-2-(2-pyridin-4-yl-5,6,7,8-tetrahydro-benzo[4,5]thieno[2,3-d]pyrimidin-4-yloxy)-ethylamine]: the IC50 lay within 1 to 10 µM. As for `N[C@@H](COc1nc(-c2ccncc2)nc2sc3c(c12)CCCC3)Cc1ccc2ccccc2c1` [compound 172, (R)-1-Naphthalen-2-ylmethyl-2-(2-pyridin-4-yl-5,6,7,8-tetrahydro-benzo[4,5]thieno[2,3-d]pyrimidin-4-yloxy)-ethylamine], the figure is 10 to 40 µM; as for `N[C@@H](COc1nc(-c2ccncc2)nc2sc3c(c12)CCCC3)Cc1cccc2ccccc12` [compound 173, (R)-1-Naphthalen-1-ylmethyl-2-(2-pyridin-4-yl-5,6,7,8-tetrahydro-benzo[4,5]thieno[2,3-d]pyrimidin-4-yloxy)-ethylamine], 1 to 10 µM; as for `Cc1ccccc1C[C@H](N)COc1nc(-c2ccncc2)nc2sc3c(c12)CCCC3` [compound 174, (S)-1-(2-Methyl-benzyl)-2-(2-pyridin-4-yl-5,6,7,8-tetrahydro-benzo[4,5]thieno[2,3-d]pyrimidin-4-yloxy)-ethylamine], 1 to 10 µM. As for `N[C@H](COc1nc(-c2ccncc2)nc2sc3c(c12)CCCC3)Cc1c[nH]cn1` [compound 175, (S)-1-(1H-Imidazol-4-ylmethyl)-2-(2-pyridin-4-yl-5,6,7,8-tetrahydro-benzo[4,5]thieno[2,3-d]pyrimidin-4-yloxy)-ethylamine], the figure is 10 to 40 µM. As to `N[C@@H](COc1nc(-c2ccncc2)nc2sc3c(c12)CCCC3)Cc1csc2ccccc12` [compound 176, (R)-1-Benzo[b]thiophen-3-ylmethyl-2-(2-pyridin-4-yl-5,6,7,8-tetrahydro-benzo[4,5]thieno[2,3-d]pyrimidin-4-yloxy)-ethylamine], the half-maximal inhibitory concentration (IC50) lay in the range of 10 to 40 µM. As for `N[C@H](COc1nc(-c2ccncc2)nc2sc3c(c12)CCCC3)Cc1csc2ccccc12` [compound 177, (S)-1-Benzo[b]thiophen-3-ylmethyl-2-(2-pyridin-4-yl-5,6,7,8-tetrahydro-benzo[4,5]thieno[2,3-d]pyrimidin-4-yloxy)-ethylamine], the figure is 10 to 40 µM; as for `c1cc(-c2nc(OC[C@H]3CCCCN3)c3c4c(sc3n2)CCCC4)ccn1` [compound 178, 4-((R)-1-Piperidin-2-ylmethoxy)-2-pyridin-4-yl-5,6,7,8-tetrahydro-benzo[4,5]thieno[2,3-d]pyrimidine], 1 to 10 µM. Take `c1cc(-c2nc(OC[C@@H]3CCCCN3)c3c4c(sc3n2)CCCC4)ccn1` [compound 179, 4-((S)-1-Piperidin-2-ylmethoxy)-2-pyridin-4-yl-5,6,7,8-tetrahydro-benzo[4,5]thieno[2,3-d]pyrimidine]: the 50% inhibitory concentration (IC50) fell in the range of 10 to 40 µM. As for `COc1cccc(C[C@H](N)COc2nc(-c3ccncc3)nc3sc4c(c23)CCCC4)c1` [compound 180, (S)-1-(3-Methoxy-benzyl)-2-(2-pyridin-4-yl-5,6,7,8-tetrahydro-benzo[4,5]thieno[2,3-d]pyrimidin-4-yloxy)-ethylamine], the figure is 1 to 10 µM; as for `NCCNc1nc(-c2cn[nH]c2)nc2sc3c(c12)CCCC3` [compound 181, N*1*-[2-(1H-Pyrazol-4-yl)-5,6,7,8-tetrahydro-benzo[4,5]thieno[2,3-d]pyrimidin-4-yl]-ethane-1,2-diamine], 0.1 to 1 µM.

For the compound `Cc1n[nH]c(C)c1-c1nc(NCCN)c2c3c(sc2n1)CCCC3` [compound 182, N*1*-[2-(3,5-Dimethyl-1H-pyrazol-4-yl)-5,6,7,8-tetrahydro-benzo[4,5]thieno[2,3-d]pyrimidin-4-yl]-ethane-1,2-diamine], the IC50 was 0.1 to 1 µM. As for `N[C@H](CNc1nc(-c2cn[nH]c2)nc2sc3c(c12)CCCC3)Cc1ccccc1` [compound 183, (S)-3-Phenyl-N*1*-[2-(1H-pyrazol-4-yl)-5,6,7,8-tetrahydro-benzo[4,5]thieno[2,3-d]pyrimidin-4-yl]-propane-1,2-diamine], the figure is 0.1 to 1 µM; as for `Cc1n[nH]c(C)c1-c1nc(NC[C@@H](N)Cc2ccccc2)c2c3c(sc2n1)CCCC3` [compound 184, (S)-N*1*-[2-(3,5-Dimethyl-1H-pyrazol-4-yl)-5,6,7,8-tetrahydro-benzo[4,5]thieno[2,3-d]pyrimidin-4-yl]-3-phenyl-propane-1,2-diamine], 1 to 10 µM; as for `c1n[nH]cc1-c1nc(N2CCNCC2)c2c3c(sc2n1)CCCC3` [compound 185, 4-Piperazin-1-yl-2-(1H-pyrazol-4-yl)-5,6,7,8-tetrahydro-benzo[4,5]thieno[2,3-d]pyrimidine], 0.1 to 1 µM. On to `c1n[nH]cc1-c1nc(N2CCCNCC2)c2c3c(sc2n1)CCCC3` [compound 186, 4-[1,4]Diazepan-1-yl-2-(1H-pyrazol-4-yl)-5,6,7,8-tetrahydro-benzo[4,5]thieno[2,3-d]pyrimidine], for which the IC50 is 0.1 to 1 µM. Regarding `C[C@H](N)CNc1nc(-c2cn[nH]c2)nc2sc3c(c12)CCCC3` [compound 187, (S)-N*1*-[2-(1H-Pyrazol-4-yl)-5,6,7,8-tetrahydro-benzo[4,5]thieno[2,3-d]pyrimidin-4-yl]-propane-1,2-diamine], the IC50 lay in the range of 0.1 to 1 µM. As for `C[C@@H](N)CNc1nc(-c2cn[nH]c2)nc2sc3c(c12)CCCC3` [compound 188, (R)-N*1*-[2-(1H-Pyrazol-4-yl)-5,6,7,8-tetrahydro-benzo[4,5]thieno[2,3-d]pyrimidin-4-yl]-propane-1,2-diamine], the figure is 1 to 10 µM; as for `c1n[nH]cc1-c1nc(N[C@@H]2CCNC2)c2c3c(sc2n1)CCCC3` [compound 189, [2-(1H-Pyrazol-4-yl)-5,6,7,8-tetrahydro-benzo[4,5]thieno[2,3-d]pyrimidin-4-yl]-(R)-pyrrolidin-3-yl-amine], 0.1 to 1 µM; as for `Cc1n[nH]c(C)c1-c1nc(N2CCNCC2)c2c3c(sc2n1)CCCC3` [compound 190, 2-(3,5-Dimethyl-1H-pyrazol-4-yl)-4-piperazin-1-yl-5,6,7,8-tetrahydro-benzo[4,5]thieno[2,3-d]pyrimidine], 0.1 to 1 µM.

On to `Cc1n[nH]c(C)c1-c1nc(N2CCCNCC2)c2c3c(sc2n1)CCCC3` [compound 191, 4-[1,4]Diazepan-1-yl-2-(3,5-dimethyl-1H-pyrazol-4-yl)-5,6,7,8-tetrahydro-benzo[4,5]thieno[2,3-d]pyrimidine], for which the IC50 was in the range of 0.1 to 1 µM.

The record behind these values is patent US10183950B2, “Thienopyrimidine inhibitors of atypical protein kinase C” (Cancer Research Technology Limited, priority 2011, dated 2019).
